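Results reflect a 48-hour exposure of cells in 96-well plates to compound at five concentrations. TGI denotes the concentration required for complete inhibition of growth.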
Assays:
Test in all cases: DTP human tumour cell line panel, 48 h
OVCAR-3 ovarian = test system: OVCAR-3 ovarian
SF-295 CNS = test system: SF-295 CNS
RPMI-8226 leukemia = test system: RPMI-8226 leukemia
MALME-3M melanoma = test system: MALME-3M melanoma
SW-620 colon = test system: SW-620 colon
786-0 renal = test system: 786-0 renal
SNB-78 CNS = test system: SNB-78 CNS
M14 melanoma = test system: M14 melanoma
K-562 leukemia = test system: K-562 leukemia
KM20L2 colon = test system: KM20L2 colon
HL-60(TB) leukemia = test system: HL-60(TB) leukemia
SF-539 CNS = test system: SF-539 CNS
SR leukemia = test system: SR leukemia
HCT-15 colon = test system: HCT-15 colon
DMS 114 small cell lung = test system: DMS 114 small cell lung
ACHN renal = test system: ACHN renal
NCI-H23 lung = test system: NCI-H23 lung
UACC-257 melanoma = test system: UACC-257 melanoma
M19-MEL melanoma = test system: M19-MEL melanoma
NCI-H460 lung = test system: NCI-H460 lung
OVCAR-4 ovarian = test system: OVCAR-4 ovarian
OVCAR-5 ovarian = test system: OVCAR-5 ovarian
NCI-H522 lung = test system: NCI-H522 lung
SNB-19 CNS = test system: SNB-19 CNS
UACC-62 melanoma = test system: UACC-62 melanoma
DLD-1 colon = test system: DLD-1 colon
KM12 colon = test system: KM12 colon
SK-MEL-2 melanoma = test system: SK-MEL-2 melanoma
HCC-2998 colon = test system: HCC-2998 colon
XF 498 CNS = test system: XF 498 CNS
A498 renal = test system: A498 renal
CAKI-1 renal = test system: CAKI-1 renal
MOLT-4 leukemia = test system: MOLT-4 leukemia
U251 CNS = test system: U251 CNS
COLO 205 colon = test system: COLO 205 colon
A549 NSCLC = test system: A549 NSCLC
NCI-H226 lung = test system: NCI-H226 lung
TK-10 renal = test system: TK-10 renal
UO-31 renal = test system: UO-31 renal
LXFL 529 NSCLC = test system: LXFL 529 NSCLC
SN12C renal = test system: SN12C renal
SK-MEL-5 melanoma = test system: SK-MEL-5 melanoma
HT29 colon = test system: HT29 colon
IGROV1 ovarian = test system: IGROV1 ovarian
EKVX NSCLC = test system: EKVX NSCLC
CCRF-CEM leukemia = test system: CCRF-CEM leukemia
LOX IMVI melanoma = test system: LOX IMVI melanoma
SF-268 CNS = test system: SF-268 CNS
HOP-62 NSCLC = test system: HOP-62 NSCLC
SK-OV-3 ovarian = test system: SK-OV-3 ovarian
HCT-116 colon = test system: HCT-116 colon
OVCAR-8 ovarian = test system: OVCAR-8 ovarian
BT-549 breast = test system: BT-549 breast
NCI/ADR-RES ovarian = test system: NCI/ADR-RES ovarian
RXF 393 renal = test system: RXF 393 renal
DU-145 prostate = test system: DU-145 prostate
PC-3 prostate = test system: PC-3 prostate
MDA-N = test system: MDA-N
T-47D breast = test system: T-47D breast
SK-MEL-28 melanoma = test system: SK-MEL-28 melanoma
MCF7 breast = test system: MCF7 breast
HOP-92 NSCLC = test system: HOP-92 NSCLC
MDA-MB-231 breast = test system: MDA-MB-231 breast
HS 578T breast = test system: HS 578T breast
MDA-MB-435 = test system: MDA-MB-435
SNB-75 CNS = test system: SNB-75 CNS

`CCOC(=O)CC(=O)ON(C)C(C)=O` showed a TGI (OVCAR-3 ovarian) of over 100 µM, a TGI (SF-295 CNS) of over 100 µM and a TGI (RPMI-8226 leukemia) of over 100 µM. The TGI (MALME-3M melanoma) was over 100 µM, the TGI (SW-620 colon) was over 100 µM and the TGI (786-0 renal) was over 100 µM. For the same compound, the TGI (SNB-78 CNS) was over 100 µM, the TGI (M14 melanoma) was over 100 µM and the TGI (K-562 leukemia) was over 100 µM. The TGI (KM20L2 colon) was over 100 µM, the TGI (HL-60(TB) leukemia) was over 100 µM and the TGI (SF-539 CNS) was over 100 µM. It also gave a TGI (SR leukemia) of over 100 µM, a TGI (HCT-15 colon) of over 100 µM and a TGI (DMS 114 small cell lung) of over 100 µM. For the same compound, the TGI (ACHN renal) was over 100 µM, the TGI (NCI-H23 lung) was over 100 µM and the TGI (UACC-257 melanoma) was over 100 µM. The TGI (M19-MEL melanoma) was over 100 µM, the TGI (NCI-H460 lung) was over 100 µM and the TGI (OVCAR-4 ovarian) was over 100 µM. The TGI (OVCAR-5 ovarian) was over 100 µM, the TGI (NCI-H522 lung) was over 100 µM and the TGI (SNB-19 CNS) was over 100 µM. The TGI (UACC-62 melanoma) was over 100 µM, the TGI (DLD-1 colon) was over 100 µM and the TGI (KM12 colon) was over 100 µM. For the same compound, the TGI (SK-MEL-2 melanoma) was over 100 µM, the TGI (HCC-2998 colon) was over 100 µM and the TGI (XF 498 CNS) was over 100 µM. It also gave a TGI (A498 renal) of over 100 µM, a TGI (CAKI-1 renal) of over 100 µM and a TGI (MOLT-4 leukemia) of over 100 µM. For the same compound, the TGI (U251 CNS) was over 100 µM, the TGI (COLO 205 colon) was over 100 µM and the TGI (A549 NSCLC) was over 100 µM. For the same compound, the TGI (NCI-H226 lung) was over 100 µM, the TGI (TK-10 renal) was over 100 µM and the TGI (UO-31 renal) was over 100 µM. For the same compound, the TGI (LXFL 529 NSCLC) was over 100 µM, the TGI (SN12C renal) was over 100 µM and the TGI (SK-MEL-5 melanoma) was over 100 µM. The TGI (HT29 colon) was over 100 µM, the TGI (IGROV1 ovarian) was over 100 µM and the TGI (EKVX NSCLC) was over 100 µM. It also gave a TGI (CCRF-CEM leukemia) of over 100 µM, a TGI (LOX IMVI melanoma) of over 100 µM and a TGI (SF-268 CNS) of over 100 µM. For the same compound, the TGI (HOP-62 NSCLC) was over 100 µM, the TGI (SK-OV-3 ovarian) was over 100 µM and the TGI (HCT-116 colon) was over 100 µM. For the same compound, the TGI (OVCAR-8 ovarian) was over 100 µM.

With `CN1CSC(=S)N(c2c3ccccc3nc3ccc(Br)cc23)C1` the TGI (OVCAR-3 ovarian) was 33.3 µM, the TGI (BT-549 breast) was 32.2 µM and the TGI (SF-295 CNS) was 21.2 µM. For the same compound, the TGI (RPMI-8226 leukemia) was 31.4 µM, the TGI (MALME-3M melanoma) was 33.2 µM and the TGI (SW-620 colon) was 23.8 µM. It also gave a TGI (786-0 renal) of 16.6 µM, a TGI (NCI/ADR-RES ovarian) of 30.9 µM and a TGI (M14 melanoma) of 26.9 µM. It also gave a TGI (K-562 leukemia) of over 32.4 µM, a TGI (RXF 393 renal) of 24.7 µM and a TGI (HL-60(TB) leukemia) of 27.2 µM. For the same compound, the TGI (DU-145 prostate) was 22 µM, the TGI (SF-539 CNS) was 25.7 µM and the TGI (PC-3 prostate) was 26.3 µM. For the same compound, the TGI (SR leukemia) was 12.6 µM, the TGI (HCT-15 colon) was 20.4 µM and the TGI (ACHN renal) was 19.5 µM. The TGI (NCI-H23 lung) was 23.5 µM, the TGI (UACC-257 melanoma) was 24.8 µM and the TGI (NCI-H460 lung) was 13.6 µM. It also gave a TGI (MDA-N) of 25.3 µM, a TGI (OVCAR-4 ovarian) of 25.7 µM and a TGI (OVCAR-5 ovarian) of 31.6 µM. It also gave a TGI (NCI-H522 lung) of 12.6 µM, a TGI (SNB-19 CNS) of 26 µM and a TGI (UACC-62 melanoma) of 27.4 µM. The TGI (KM12 colon) was 33.6 µM, the TGI (SK-MEL-2 melanoma) was 29.3 µM and the TGI (HCC-2998 colon) was 8.3 µM. For the same compound, the TGI (A498 renal) was 27 µM, the TGI (CAKI-1 renal) was 24 µM and the TGI (MOLT-4 leukemia) was 5.87 µM. For the same compound, the TGI (U251 CNS) was 20.4 µM, the TGI (T-47D breast) was 38.3 µM and the TGI (COLO 205 colon) was 20 µM. It also gave a TGI (SK-MEL-28 melanoma) of 35.2 µM, a TGI (A549 NSCLC) of 21.6 µM and a TGI (MCF7 breast) of 24.1 µM. It also gave a TGI (NCI-H226 lung) of 37 µM, a TGI (TK-10 renal) of 21.9 µM and a TGI (UO-31 renal) of 22.4 µM. The TGI (HOP-92 NSCLC) was 32.7 µM, the TGI (MDA-MB-231 breast) was 22.9 µM and the TGI (SN12C renal) was 18.8 µM. For the same compound, the TGI (SK-MEL-5 melanoma) was 26.2 µM, the TGI (HS 578T breast) was 47.2 µM and the TGI (HT29 colon) was 23.1 µM. The TGI (IGROV1 ovarian) was 25.1 µM, the TGI (EKVX NSCLC) was 33.1 µM and the TGI (MDA-MB-435) was 26.5 µM. It also gave a TGI (CCRF-CEM leukemia) of 22.8 µM, a TGI (LOX IMVI melanoma) of over 53.4 µM and a TGI (SF-268 CNS) of 27.4 µM. For the same compound, the TGI (HOP-62 NSCLC) was 51 µM, the TGI (SK-OV-3 ovarian) was 31.1 µM and the TGI (HCT-116 colon) was 15.7 µM. It also gave a TGI (OVCAR-8 ovarian) of over 51.2 µM and a TGI (SNB-75 CNS) of 23.7 µM.

Source: PubChem BioAssay (NCI)
